Measurements: patent US20240293405A1, “(1H-PYRROLO[2,3-B]PYRIDIN-1-YL)PYRIMIDIN-2-YL-AMINO-PHENYL-ACRYLAMIDE INHIBITORS OF EGFR FOR USE IN THE TREATMENT OF BRAIN TUMORS” (Dana-Farber Cancer Institute, Inc., priority 2021, published 2024)
Values joined by “and” are separate entries in the source; they are usually repeats but may differ in a detail not shown here. Equal entries are not always repeated. Where two headings read alike, the source gives them in different places.

Columns and labels:
Glioblastoma = conditions: previously published report, cited from earlier work
P-gp, Bcrp = conditions: previously published report; cited from earlier work
BT112 cells = assay: Cell viability, patient-derived GBM line BT112; conditions: Homo sapiens, 72 h
Procedure: (§1) Primary human glioblastoma lines BT112, BT179 and BT333 were maintained in NeuroCult proliferation medium (human) (StemCell Technologies) with 20 ng/ml EGF, 10 ng/ml FGF and 0.0002% Heparin.
(§2) Cells were seeded in 96-well plates at a density of 1,000 cells per well and treated with two-fold serial dilutions of compounds with a starting concentration of 20 μM. Cell viability was assessed after three days of treatment by CellTiter-Glo (Promega). Curve fitting analysis and IC50 value determination were performed using GraphPad Prism 8.

BT179 cells = assay: Cell viability, patient-derived GBM line BT179; conditions: Homo sapiens, 72 h
Procedure: as §1, §2

BT333 cells = assay: Cell viability, patient-derived GBM line BT333; conditions: Homo sapiens, 72 h
Procedure: as §1, §2

[1] = Brain and plasma exposure after 5 hour intravenous infusion; type: in vivo, Sprague Dawley rats; conditions: for Kp at 5 h: iv, read-out: Brain/Plasma (ratios)
Procedure: A single IV infustion for 5 hours was administered to each animal, which were then twice observed clinically (30 minutes to 1 hour post-posing and at the end of the study (TTerminal). Blood samples were collected at 5 time points from each animal over the 5 hour infusion period (5 minutes, 1 hour, 2, hours, 3 hours and TTerminal) and processed to plasma. Brains were collected at Tterminal (blotted, weighed, and snap frozen) and brain exposure was compared. […]

[2] = test system: 468 human kinases and disease relevant mutant variants; assay: Kinase selectivity binding panel (468 kinases); conditions: 468 kinase panel, 1 μM free base
Procedure: Compound 1 and Compound 2 (major metabolite) were evaluated in a panel of 468 human kinases and disease relevant mutant variants. Compound 1 and Compound 2 bound to few non-mutant kinases at <1% of control. […] While there is some variability between Compound 1 and Compound 2, it is clear that both compounds are very effective at binding to a large panel of mutant kinases. […] Binding constant to wild type EGFR was 4.9 nM.

[3] = Cardiovascular function (telemetry); type: in vivo, dog; conditions: plasma; dog, 100 mg/kg Compound 1 PO; M38 as metabolite; read-out: estimated single-dose Cmax
Procedure: This arrythmia was not associated with maximum plasma concentration (Cmax) or Tmax of either parent or metabolite. No definitive link to the test article could be identified. Given the unexplained reversible arrythmia in this high-dose (100 mg/kg) telemetry dog, routine electrocardiogram (ECG) monitoring in Phase 1 is recommended.

[4] = Pharmacokinetics in rats (IV, PO); type: in vivo, rat; conditions: rat, plasma, Compound 2 as metabolite
Text: Exposure was generally dose proportional.

[5] = Oral dog 4-week toxicity study with toxicokinetics; type: in vivo, beagle dogs; conditions: beagle, in vivo, dog Day 28 mean, Compound 2 as metabolite; for AUC(0-t): read-out: AUC0-24
Procedure: Compound 1 (0, 10, 30, and 100 mg/kg/day) was given orally, once daily by gavage, to male and female beagle dogs (4/sex) for up to 28 days. […] The cause of death in this high-dose male was attributed to myocardial degeneration. This lesion was not observed in any other dog on study. Increases in alkaline phosphatase, globulin, cholesterol, triglycerides and fibrinogen and decreased reticulocyte counts noted in the high-dose group at mid-study returned towards baseline by the end of the study following 11/12 days of recovery. Testicular changes at all doses (seminiferous epithelial vacuolation at 10 and 30 mg/kg and degeneration/atrophy at 100 mg/kg) were not reversible in this short-term study; the reversibility period was not long enough to assess reversibility of testicular changes.
The increases were generally dose-proportional or greater-than dose-proportional on Day 1 and Day 28. Gender difference was not observed. No significant accumulation of Compound 1 or Compound 2 was observed.
Thirty-two beagle dogs (conventional, naive) were divided into four groups. Each group consists of four male and four female. Group 1 beagle dogs were administered vehicle and groups 2-4 beagle dogs were administered Compound 1 at 10 mg/kg, 30 mg/kg, and 100 mg/kg, respectively, by oral gavage once daily for 28 consecutive days (Table 15). […] Cmax (ng/mL) and AUClast (hr*ng/mL) of Compound 1 on day 1 were obtained for groups 2-4 (Table 15).

[6] = Brain and plasma exposure after single oral dose; type: in vivo, Sprague Dawley rats; conditions: gefitinib 50 mg/kg PO
Text: Genfitinib concentrations were quantitated by LC-MS/MS from brain and plasma from Group 1 animals.

[7] = Brain and plasma exposure after single oral dose; type: in vivo, Sprague Dawley rats; conditions: Sprague Dawley, rat, 50 mg/kg, gefitinib 50 mg/kg PO, 7 hr; for concentration at 7 h: oral
[8] = 3 mg/kg IV infusion over 5 h, 5 h, individual animal, Compound 2 as metabolite in Compound 1-dosed rats
[9] = male, Sprague Dawley, rat, brain, intravenous, 3 mg/kg, 3 mg/kg IV infusion over 5 h, 5 h, individual animal, Compound 2 as metabolite in Compound 1-dosed rats, read-out: Brain Tissue Concentration
[10] = male, Sprague Dawley, rat, brain, intravenous, 3 mg/kg, 3 mg/kg IV infusion over 5 h, 5 h, mean n=6, Compound 2 as metabolite, read-out: Brain Tissue Concentration
[11] = male, Sprague Dawley, rat, plasma, intravenous, 3 mg/kg, 3 mg/kg IV infusion over 5 h, 1 h, individual animal, Compound 2 as metabolite in Compound 1-dosed rats
[12] = male, Sprague Dawley, rat, plasma, intravenous, 3 mg/kg, 3 mg/kg IV infusion over 5 h, 2 h, individual animal, Compound 2 as metabolite in Compound 1-dosed rats
[13] = male, Sprague Dawley, rat, plasma, intravenous, 3 mg/kg, 3 mg/kg IV infusion over 5 h, 5 h, individual animal, Compound 2 as metabolite in Compound 1-dosed rats, read-out: Plasma Concentration
[14] = female, 10 mg/kg Compound 1 PO, F
[15] = female, 30 mg/kg Compound 1 PO, F
[16] = male, 10 mg/kg Compound 1 PO, M
[17] = male, 30 mg/kg Compound 1 PO, M

COc1cc2ncnc(Nc3ccc(F)c(Cl)c3)c2cc1NC(=O)/C=C/CN1CCCCC1 [Vizimpro]
Glioblastoma (treatment outcome) (Glioblastoma): Failed
Glioblastoma (treatment outcome) (Glioblastoma; listed as visimpro): failed

C#Cc1cccc(Nc2ncnc3cc(OCCOC)c(OCCOC)cc23)c1 [Erlotinib]
Efflux Liability (P-gp, Bcrp): P-gp, Bcrp
Glioblastoma (treatment outcome) (Glioblastoma): Failed
Glioblastoma (treatment outcome) (Glioblastoma; listed as erlotinib): failed
IC50 (BT112 cells): 18.5 µM
IC50 (BT179 cells): 11.7 µM
IC50 (BT333 cells): 52.3 µM

CS(=O)(=O)CCNCc1ccc(-c2ccc3ncnc(Nc4ccc(OCc5cccc(F)c5)c(Cl)c4)c3c2)o1 [Lapatinib]
IC50 (BT112 cells): 5.22 µM
IC50 (BT179 cells): 2.32 µM
IC50 (BT333 cells): 7.91 µM

CN(C)C/C=C/C(=O)Nc1cc2c(Nc3ccc(F)c(Cl)c3)ncnc2cc1O[C@H]1CCOC1 [Afatinib]
Efflux Liability (P-gp, Bcrp): P-gp, Bcrp

C=CC(=O)Nc1cc(Nc2nccc(-n3ccc4cccnc43)n2)c(OC)cc1N(C)CCNC [Compound 2, N-(5-((4-(1H-pyrrolo[2,3-b]pyridin-1-yl)pyrimidin-2-yl)amino)-4-methoxy-2-(methyl(2-(methylamino)ethyl)amino)phenyl)acrylamide]
Plasma Concentration ([1]; 3 mg/kg IV infusion over 5 h, 0.083 h, individual animal, Compound 2 as metabolite in Compound 1-dosed rats): BLQ
Plasma Concentration ([1]; 3 mg/kg IV infusion over 5 h, 0.083 h, mean n=6, Compound 2 as metabolite): BLQ
Plasma Concentration ([1]; 3 mg/kg IV infusion over 5 h, 1 h, individual animal, Compound 2 as metabolite in Compound 1-dosed rats): 3.47 ng/mL (2×) and 3.14 ng/mL and 3.28 ng/mL and 2.71 ng/mL
Plasma Concentration ([1]; 3 mg/kg IV infusion over 5 h, 2 h, individual animal, Compound 2 as metabolite in Compound 1-dosed rats): 7.75 ng/mL and 6.99 ng/mL and 8.41 ng/mL and 7.39 ng/mL and 6.20 ng/mL
Plasma Concentration ([1]; 3 mg/kg IV infusion over 5 h, 3 h, individual animal, Compound 2 as metabolite in Compound 1-dosed rats): 12.9 ng/mL and 10.6 ng/mL and 12.7 ng/mL and 12.5 ng/mL and 12.3 ng/mL
Brain Tissue Concentration [1, 8]: 23.6 ng/g and 20.9 ng/g and 21.0 ng/g and 21.6 ng/g and 19.8 ng/g
Brain/Plasma (ratios) [1, 8]: 1.30 and 1.07 and 1.11 and 1.06
Plasma Concentration [1, 8]: 18.1 ng/mL and 19.6 ng/mL and 18.9 ng/mL and 20.4 ng/mL and 16.8 ng/mL
brain exposure relative to plasma ([1]; Compound 2 as metabolite, rat): essentially equal to plasma
concentration at 5 h [1, 9]: 24.5 ng/g
concentration at 5 h [1, 10]: 21.9 ng/g
Kp at 5 h ([1]; male, Sprague Dawley, rat, brain, 3 mg/kg, 3 mg/kg IV infusion over 5 h, 5 h, individual animal, Compound 2 as metabolite in Compound 1-dosed rats): 1.35
Kp at 5 h ([1]; male, Sprague Dawley, rat, brain, 3 mg/kg, 3 mg/kg IV infusion over 5 h, 5 h, mean n=6, Compound 2 as metabolite): 1.18
concentration at 1 h [1, 11]: 3.24 ng/mL
concentration at 1 h ([1]; male, Sprague Dawley, rat, plasma, intravenous, 3 mg/kg, 3 mg/kg IV infusion over 5 h, 1 h, mean n=6, Compound 2 as metabolite): 3.22 ng/mL
concentration at 2 h [1, 12]: 5.62 ng/mL
concentration at 2 h ([1]; male, Sprague Dawley, rat, plasma, intravenous, 3 mg/kg, 3 mg/kg IV infusion over 5 h, 2 h, mean n=6, Compound 2 as metabolite): 7.06 ng/mL
concentration at 3 h ([1]; male, Sprague Dawley, rat, plasma, intravenous, 3 mg/kg, 3 mg/kg IV infusion over 5 h, 3 h, individual animal, Compound 2 as metabolite in Compound 1-dosed rats): 12.9 ng/mL
concentration at 3 h ([1]; male, Sprague Dawley, rat, plasma, intravenous, 3 mg/kg, 3 mg/kg IV infusion over 5 h, 3 h, mean n=6, Compound 2 as metabolite): 12.3 ng/mL
concentration at 5 h [1, 13]: 18.2 ng/mL
concentration at 5 h ([1]; male, Sprague Dawley, rat, plasma, intravenous, 3 mg/kg, 3 mg/kg IV infusion over 5 h, 5 h, mean n=6, Compound 2 as metabolite, read-out: Plasma Concentration): 18.7 ng/mL
targeted non-mutant kinases (bound at <1% of control) [2]: ERBB2, JAK3 (JH1-domain-catalytic), MKNK2, MTOR, OSR1 and TNK1
Cmax [3]: ~367 ng/mL and ~750 nM
half-life [4]: ~9 h
Tmax ([4]; po): ~7 h
Cmax [5, 14]: 242 ng/mL
AUC(0-t) [5, 14]: 3360 ng·h/mL
Cmax [5, 15]: 161 ng/mL
AUC(0-t) [5, 15]: 1790 ng·h/mL
Cmax [5, 16]: 143 ng/mL
AUC(0-t) [5, 16]: 1420 ng·h/mL
Cmax [5, 17]: 263 ng/mL
AUC(0-t) [5, 17]: 2980 ng·h/mL

COc1cc2ncnc(Nc3ccc(F)c(Cl)c3)c2cc1OCCCN1CCOCC1 [Gefitinib, reference compound]
concentration at 3 h ([6]; Sprague Dawley, rat, plasma, oral, 50 mg/kg, 3 hr, mean n=3): 1950 ng/mL
Plasma Concentration ([6]; 3 hr, individual animal): 2660 ng/mL and 1940 ng/mL and 1260 ng/mL
Brain Tissue Concentration ([6]; 7 hr, individual animal): 666 ng/g and 562 ng/g and 561 ng/g
Plasma Concentration ([6]; 7 hr, individual animal): 2240 ng/mL and 4700 ng/mL and 1030 ng/mL
Brain Tissue Concentration [1, 8]: 153 ng/g and 129 ng/g and 151 ng/g and 149 ng/g and 189 ng/g and 155 ng/g
concentration at 5 h [1, 9]: 155 ng/g
concentration at 5 h [1, 10]: 154 ng/g
concentration at 0.083 h ([1]; male, Sprague Dawley, rat, plasma, intravenous, 3 mg/kg, 3 mg/kg IV infusion over 5 h, 0.083 h, individual animal, Compound 2 as metabolite in Compound 1-dosed rats): 55.6 ng/mL
concentration at 1 h [1, 11]: 115 ng/mL
concentration at 2 h [1, 12]: 161 ng/mL
concentration at 5 h [1, 13]: 286 ng/mL
concentration at 7 h ([7]; brain, individual animal, read-out: Brain Tissue Concentration): 561 ng/g
concentration at 7 h ([7]; brain, mean n=3, read-out: Brain Tissue Concentration): 596 ng/g
Kp at 7 h ([7]; brain, po, mean n=3, read-out: Brain/Plasma (ratios)): 0.22
concentration at 7 h ([7]; plasma, mean n=3, read-out: Plasma Concentration): 2660 ng/mL
Efflux Liability (P-gp, Bcrp): P-gp, Bcrp
Glioblastoma (treatment outcome) (Glioblastoma): Failed
Glioblastoma (treatment outcome) (Glioblastoma; listed as gefitinib): failed
